Experimental data reported in patent US10201586B2 (dated 2019).
Read-outs that look alike come from different tables or passages of the source. Where a SMILES comes first, the peptide text is derived from it. Bridges are numbered along the chain shown (N, C = ends). [ ]: non-standard residue; d: D form. The star is where a group is joined. X2 = NCCCC[C@H](NC(=O)CCC(=O)NCCCOCCOCCOCCCN*)C(=O)N[C@@H](CCCCN)C(=O)N[C@@H](CCCCNC(=O)CCCC[C@@H]1SC[C@@H]2NC(=O)N[C@@H]21)C(N)=O; NMeF = CN[C@@H](Cc1ccccc1)C(=O)O; Tle = CC(C)(C)[C@H](N)C(=O)O; Aib = CC(C)(N)C(=O)O

Tests used:
[1] = target: T1, TFPI (Homo sapiens, UniProt P10646); assay: % Inhibition @ 2.5µM; conditions: read-out: % Inhibition @ […]
Target sequence in this assay (P10646 29-304 limits assumed): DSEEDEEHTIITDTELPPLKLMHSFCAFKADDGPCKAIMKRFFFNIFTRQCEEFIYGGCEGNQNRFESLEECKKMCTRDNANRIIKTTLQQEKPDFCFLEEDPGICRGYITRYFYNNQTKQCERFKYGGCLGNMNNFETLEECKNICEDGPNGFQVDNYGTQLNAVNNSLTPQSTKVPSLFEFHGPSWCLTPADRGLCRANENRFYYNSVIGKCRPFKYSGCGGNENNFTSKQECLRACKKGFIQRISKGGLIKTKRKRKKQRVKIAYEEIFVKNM

[2] = target: T1, TFPI; assay: IC50 Mean (nM]
Target sequence in this assay (P10646 29-304 limits assumed): as above

[3] = target: T2, human TFPI-1 (Homo sapiens, UniProt P10646); assay: BIAcore surface plasmon resonance assay; type: binding
T2 construct: human TFPI-1 (residues 29-282 fused at the C-terminus to a 10 His-tag); purchased R&D Systems 2974-PI

[4] = target: T1, TFPI; assay: Progress Curves of Inhibition of FXa | EC50 (µM)
Target sequence in this assay (P10646 29-304 limits assumed): as above

[5] = target: T1, TFPI; assay: BiaCore | kon (1/Ms); conditions: read-out: BiaCore | kon (1/Ms)
Target sequence in this assay (P10646 29-304 limits assumed): as above

[6] = target: T1, TFPI; assay: Extrinsic Tenase Inhibition by TFPI | EC50 (µM)
Target sequence in this assay (P10646 29-304 limits assumed): as above

[7] = target: T1, TFPI; assay: koff (1/s); conditions: read-out: koff (1/s)
Target sequence in this assay (P10646 29-304 limits assumed): as above

[8] = target: T1, TFPI; assay: KD (M)
[9] = test system: thrombin generation in FVIII- or FIX-deficient or FVIII-inhibited plasma; assay: plasma-based thrombin generation assay (calibrated automated thrombography); type: biochemical, human
[10] = target: T1, TFPI; assay: Extrinsic Tenase Inhibition by TFPI | % Inhibit (2.5µM); conditions: read-out: Extrinsic Tenase Inhibition by TFPI | % Inhibit ([…])
[11] = target: T1, TFPI; assay: % Inhibition @ 2.5µM
[12] = target: T1, TFPI; assay: Extrinsic Tenase Inhibition by TFPI | % Inhibit (2.5µM)
[13] = human plasma; conditions: up to 24 hour
[14] = target: T1, TFPI; assay: Extrinsic Tenase Inhibition by TFPI | % Inhibit (2.5µM); remark: listed apart in the source
[15] = target: T3, Tissue Factor Pathway Inhibitor (TFPI) (Homo sapiens, UniProt P10646); assay: Progress Curves of Inhibition of FXa | % Inhibit (2.5µM)
[16] = target: recombinant human full length TFPI (Homo sapiens, UniProt P10646); assay: Progression curve | EC50 (µM)
Excerpt: Table printed on a drawing sheet, FIGURE 62F
Head of the field: Progression curve | EC50 (µM)
Designation “n.a.” is “not analyzed.” Progression curve data were obtained using the FXa inhibition assay described in Example 3 with recombinant human full length TFPI. Assay concentration of progression curve assay was 0.0025% (0.1% Tween80 used in peptide dilution buffer).
First copying reader's note: Last part (62F) of a table continued over FIG. 62A-62F.

[17] = target: T3, Tissue Factor Pathway Inhibitor (TFPI); assay: IC50 ELISA | IC50 [nM]
Target sequence in this assay (P10646 29-304 limits assumed): as above

[18] = target: T1, TFPI; assay: Extrinsic Tenase Inhibition assay | EC50 (µM)
[19] = target: T1, TFPI; assay: Extrinsic Tenase Inhibition by TFPI | % Inhibit (2.5µM); remark: listed apart in the source
[20] = target: T1, TFPI; assay: Progress Curves of Inhibition of FXa | % Inhibit (2.5µM)
[21] = target: T1, TFPI; assay: % Inhibition @ 2.5µM; remark: listed apart in the source

T2 sequence (P10646 29-282): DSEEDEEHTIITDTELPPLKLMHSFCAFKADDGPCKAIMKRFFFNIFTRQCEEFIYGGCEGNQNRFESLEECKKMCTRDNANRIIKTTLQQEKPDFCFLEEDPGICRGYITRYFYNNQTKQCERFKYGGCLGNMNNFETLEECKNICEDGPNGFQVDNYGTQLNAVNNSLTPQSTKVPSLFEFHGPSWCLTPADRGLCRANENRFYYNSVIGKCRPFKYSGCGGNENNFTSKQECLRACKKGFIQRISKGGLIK
Sequence of recombinant human full length TFPI (P10646 29-304 limits assumed): as the sequence (P10646 29-304 limits assumed) above

CC(=O)N[C@@H](Cc1ccccc1)C(=O)N[C@@H](CCC(N)=O)C(=O)N[C@@H](CO)C(=O)N[C@@H](CCCCN)C(=O)N[C@@H](CC(N)=O)C(=O)N[C@@H](CC(N)=O)C(=O)N[C@H](C(=O)N[C@@H](Cc1ccccc1)C(=O)N[C@H](C(=O)N[C@@H](Cc1ccccc1)C(=O)NCC(=O)N[C@@H](Cc1ccc(O)cc1)C(=O)N[C@@H](Cc1ccccc1)C(=O)N[C@@H](CCC(=O)O)C(=O)N[C@@H](CCCNC(=N)N)C(=O)N[C@@H](CC(C)C)C(=O)N[C@@H](CCCNC(=N)N)C(=O)N[C@@H](C)C(=O)N[C@@H](CCCCN)C(=O)N[C@@H](CC(C)C)C(N)=O)C(C)C)C(C)C [JBT0297] (Ac-FQSKNNVFVFGYFERLRAKL-NH2)
inhibition at […] [1]: 59% | IC50 [2]: 63 nM | koff [3]: 0.014 s⁻¹ | kon [3]: 500000 M⁻¹ s⁻¹

CSCC[C@@H]1NC(=O)CNC(=O)[C@@H](NC(=O)[C@H](Cc2ccccc2)NC(=O)[C@H](Cc2c[nH]c3ccccc23)NC(=O)[C@H](CCCCN)NC(=O)[C@H](Cc2ccc(O)cc2)NC(=O)[C@H](CCCNC(=N)N)NC(=O)[C@H](CO)NC(=O)[C@H](C)NC(=O)CNC(=O)[C@H](CO)NC(C)=O)CSSC[C@@H](C(=O)N[C@H](C(=O)N[C@@H](Cc2c[nH]c3ccccc23)C(=O)N[C@H](C(=O)N[C@@H](CCCCN)C(N)=O)C(C)C)C(C)C)NC(=O)[C@H](CO)NC(=O)[C@H](CCSC)NC(=O)[C@H]([C@@H](C)O)NC(=O)CNC(=O)[C@H](CCCCN)NC(=O)[C@H](CCSC)NC(=O)[C@H](CC(=O)O)NC(=O)[C@H](CCCNC(=N)N)NC1=O [JBT0320] (Ac-SGASRYKWFCGMRDMKGTMSCVWVK-NH2; disulfide 10-21)
EC50 [4]: 18800 nM | kon [5]: 178000 M⁻¹ s⁻¹ | EC50 [6]: 6400 nM | koff [7]: 0.0425 s⁻¹ | Kd [8]: 238 nM

CC(=O)N[C@@H](CO)C(=O)NCC(=O)N[C@H](C(=O)NCC(=O)N[C@@H](CCCNC(=N)N)C(=O)N[C@@H](CC(C)C)C(=O)N[C@@H](CCC(N)=O)C(=O)N[C@H](C(=O)N[C@@H](C)C(=O)N[C@@H](Cc1ccccc1)C(=O)N[C@@H](CCC(N)=O)C(=O)N[C@@H](CO)C(=O)N[C@@H](CCCCN)C(=O)N[C@@H](CCCCN)C(=O)N[C@@H](CC(N)=O)C(=O)N[C@H](C(=O)N[C@@H](Cc1ccccc1)C(=O)N[C@H](C(=O)N[C@@H](Cc1ccccc1)C(=O)NCC(=O)N[C@@H](Cc1ccc(O)cc1)C(=O)N[C@@H](CC(C)C)C(=O)N[C@@H](Cc1ccccc1)C(=O)N[C@@H](CCC(=O)O)C(=O)N[C@@H](CCCNC(=N)N)C(=O)N[C@@H](CC(C)C)C(=O)N[C@@H](CCCNC(=N)N)C(=O)N[C@@H](C)C(=O)N[C@@H](CCCCN)C(=O)N[C@@H](CC(C)C)C(=O)N[C@H](C(=O)N[C@@H](CO)C(N)=O)[C@@H](C)O)C(C)C)C(C)C)C(C)C)C(C)C [JBT0047] (Ac-SGVGRLQVAFQSKKNVFVFGYLFERLRAKLTS-NH2)
FVIII-equivalent activity (mU/ml) in Hem A plasma @ 1 μM peptide [9]: 45 mU/ml

CC[C@H](C)[C@H](NC(=O)[C@H](CC(=O)O)NC(=O)[C@@H]1CCCN1C(=O)[C@H](Cc1c[nH]c2ccccc12)NC(=O)[C@H](CCSC)NC(=O)[C@@H](NC(=O)[C@H](Cc1c[nH]c2ccccc12)NC(=O)[C@H](Cc1ccccc1)NC(=O)[C@H](Cc1ccc(O)cc1)NC(=O)[C@H](CCCNC(=N)N)NC(=O)[C@@H]1CCCN1C(=O)[C@H](Cc1c[nH]cn1)NC(=O)[C@@H](NC(=O)[C@H](CCC(N)=O)NC(=O)[C@H](Cc1c[nH]c2ccccc12)NC(=O)[C@@H](NC(=O)CNC(=O)[C@H](CO)NC(=O)[C@H](CCCCN)NC(=O)[C@H](CCCCN)NC(C)=O)C(C)C)[C@@H](C)O)[C@@H](C)O)C(=O)N[C@@H](CCCCN)C(=O)NCC(=O)N[C@@H](CCC(=O)O)C(=O)N[C@H](C(=O)N[C@H](C(=O)N[C@H](C(=O)N[C@@H](CC(C)C)C(=O)N[C@@H](Cc1ccccc1)C(=O)NCC(=O)N[C@H](C(=O)N[C@@H](CO)C(=O)NCCCOCCOCCOCCCNC(=O)CCC(=O)N[C@@H](CCCCN)C(=O)N[C@@H](CCCCN)C(=O)N[C@@H](CCCCNC(=O)CCCC[C@@H]1SC[C@@H]2NC(=O)N[C@@H]21)C(N)=O)[C@@H](C)O)C(C)C)[C@@H](C)CC)C(C)C [JBT0103] (Ac-KKSGVWQTHPRYFWTMWPDIKGEVIVLFGTS-X2)
inhibition at […] [10]: 21%

Ac-ASFPLAVQLHVSKRSKE-NH2 (SEQ ID NO: 2313) [JBT0363]
% Inhibition @ […] [11]: 0% | Extrinsic Tenase Inhibition by TFPI | % Inhibit ([…]) [12]: 9%

Ac-FQSKpNVHVDGYFERL-Aib-AKL-NH2
cleaved bond [13]: Val9-Asp10

Ac- KKPLAVQLHVSKRSKEMALARLYYKTSKK- NH2 (SEQ ID NO: 2129) (Ac-KKPLAVQLHVSKRSKEMALARLYYKTSKK-NH2) [JBT0229]
Extrinsic Tenase Inhibition by TFPI | % Inhibit ([…]) [14]: 0% | Progress Curves of Inhibition of FXa | % Inhibit ([…]) [15]: 0%

CSCC[C@@H]1NC(=O)CNC(=O)[C@@H](NC(=O)[C@H](Cc2ccccc2)NC(=O)[C@H](Cc2c[nH]c3ccccc23)NC(=O)[C@H](CCCCN)NC(=O)[C@H](Cc2ccc(O)cc2)NC(=O)[C@H](CCCNC(=N)N)NC(=O)[C@H](CO)NC(=O)[C@H](C)NC(=O)CNC(=O)[C@H](CO)NC(C)=O)CSSC[C@@H](C(=O)N[C@H](C(=O)N[C@@H](Cc2c[nH]c3ccccc23)C(=O)N[C@H](C(=O)N[C@@H](CCCCN)C(=O)N[C@@H](Cc2ccccc2)C(=O)N[C@@H](CCCNC(=N)N)C(=O)N[C@@H](Cc2ccc(O)cc2)C(=O)N[C@@H](CC(=O)O)C(=O)N[C@H](C(=O)N[C@@H](CO)C(N)=O)[C@@H](C)O)C(C)C)C(C)C)NC(=O)[C@H](CO)NC(=O)[C@H](CCSC)NC(=O)[C@H]([C@@H](C)O)NC(=O)CNC(=O)[C@H](CCCCN)NC(=O)[C@H](CCSC)NC(=O)[C@H](CC(=O)O)NC(=O)[C@H](CCCNC(=N)N)NC1=O [JBT0120]
peak thrombin and peak time ([9]; FIGS. 11A and 11B): improved peak thrombin and peak time, dose dependently

CC(=O)N[C@@H](Cc1ccccc1)C(=O)N[C@@H](CCC(N)=O)C(=O)N[C@@H](CO)C(=O)N[C@@H](CCCCN)C(=O)N1CCC[C@@H]1C(=O)N[C@@H](CC(N)=O)C(=O)N[C@H](C(=O)N[C@@H](Cc1c[nH]cn1)C(=O)N[C@H](C(=O)N[C@@H](CC(=O)O)C(=O)N[C@@H]1CSSC[C@@H](C(=O)N[C@@H](CCCNC(=N)N)C(=O)N[C@@H](CC(C)C)C(=O)NC(C)(C)C(=O)N[C@@H](C)C(=O)N[C@@H](CCCCN)C(=O)N[C@@H](CC(C)C)C(N)=O)NC(=O)[C@H](Cc2ccccc2)NC(=O)[C@H](Cc2ccc(O)cc2)NC1=O)C(C)(C)C)C(C)C [JBT2495 | 4210, Ac-FQSKpNVH-Tle-D[cYFC]RL-Aib-AKL-NH2] (Ac-FQSK[dP]NVH[Tle]D[dC]YFCRL[Aib]AKL-NH2; disulfide 11-14)
EC50 [16]: 2.1 nM | IC50 [17]: 3.48 nM

CC(=O)N(C)[C@@H](Cc1ccccc1)C(=O)N[C@@H](CCC(N)=O)C(=O)N[C@@H](CO)C(=O)N[C@@H](CCCCN)C(=O)NCC(=O)N[C@@H](CC(N)=O)C(=O)N[C@H](C(=O)N[C@@H](Cc1ccccc1)C(=O)N[C@H](C(=O)N[C@@H](Cc1ccccc1)C(=O)NCC(=O)N[C@@H](Cc1ccc(O)cc1)C(=O)N[C@@H](Cc1ccccc1)C(=O)N[C@@H](CCC(=O)O)C(=O)N[C@@H](CCCNC(=N)N)C(=O)N[C@@H](CC(C)C)C(=O)N[C@@H](CCCNC(=N)N)C(=O)N[C@@H](C)C(=O)N[C@@H](CCCCN)C(=O)N[C@@H](CC(C)C)C(N)=O)C(C)C)C(C)C [JBT0497] (Ac-[NMeF]QSKGNVFVFGYFERLRAKL-NH2)
EC50 [18]: 1130 nM

Ac-SRYKWFSGMRDMKGTMSSVWVKF-NH2 (SEQ ID NO: 1229) [JBT0417]
Extrinsic Tenase Inhibition by TFPI | % Inhibit ([…]) [19]: 11% | Progress Curves of Inhibition of FXa | % Inhibit ([…]) [20]: 2% | % Inhibition @ […] [21]: 0%
